Assay results: the supplement of paper PMC11997997

Columns and labels:
[1] = test system: murine bone marrow-derived macrophages; experiment: area under cytotoxicity dose-response curve (AUC (% cytotoxicity x dose, relative)); higher = more cytotoxic; settings: duration: 6 days; dose range: 0.13-80 uM, 8 points
Procedure, shortened: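 Values are the area under the cytotoxicity dose–response curve, calculated with GraphPad Prism version 10. Primary murine bone marrow-derived macrophages were exposed to final concentrations of 80–0.13 μM for 6 days, and viability was read by CellTiter-Glo luminescence with normalisation to vehicle and positive control wells.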

[2] = test system: Mycobacterium tuberculosis CDC1551 (intracellular, in murine BMDM); experiment: area under intracellular growth-inhibition dose-response curve (AUC (% inhibition x dose, relative)); higher = more potent; settings: duration: 6 days; dose range: 0.13-80 uM, 8 points
Procedure, shortened: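 The value is the area under the growth-inhibition dose–response curve, calculated in GraphPad Prism. Primary murine bone marrow-derived macrophages were seeded in 384-well opaque plates and, 24 h later, infected for 1 h with luciferase-expressing M. tuberculosis CDC1551 at multiplicity of infection 1. Cells were then exposed for 6 days to an 8-dose, 2.5-fold series (final 80–0.13 μM). Growth was read with the Bright-Glo luciferin assay and normalised to a reference drug control and to the lowest-concentration wells.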

| Compound | area under cytotoxicity dose-response curve [1] | area under intracellular growth-inhibition dose-response curve [2] |
| --- | --- | --- |
| CC(C)c1ccc(NC(=S)NC2CCCCCC2)cc1 | < 0 | 141 |
| Cc1nn(C(C)C(=O)NC2C(=O)N3C(C(=O)O)=C(CSc4nnnn4C)CSC23)cc1Cl (stereo unspecified) | 9.03 | 194 |
| NC(=S)N/N=C/c1ccc(C(F)(F)F)cc1 | 19.4 | 260 |
| Cc1cc(/C=N/NC(N)=S)c(C)n1-c1ccc(Cl)c(Cl)c1 | < 0 | 257 |
| CCOc1ccc(NC(=S)Nc2ccc(OC)cc2)cc1 | 13 | 233 |
| Cc1cc2oc(=O)cc(-c3ccccc3)c2c(C)c1-c1ccc(C#N)cc1 | 110 | 272 |
| CC(=O)O[C@H]1C[C@@]2(C)[C@@H](C[C@@H](O)[C@H]3[C@@]4(C)CC[C@@H](O)[C@@H](C)[C@@H]4CC[C@@]32C)/C1=C(\CCC=C(C)C)C(=O)O | < 0 | 206 |
| O=C(COC(=O)c1ccc([N+](=O)[O-])o1)Nc1ccc(F)cc1 | < 0 | 144 |
| Cn1nc(C(=O)OCC(=O)NCc2ccc(Cl)cc2)c2ccccc2c1=O | 4.5 | 83 |
| Cc1ccc(Cn2cc(-c3ccccc3)nn2)cc1 | 11.2 | 191 |
| CCCCCCCn1c(=O)c(C(=O)Nc2cnccn2)c(O)c2ccccc21 | 7.68 | 66 |
| Cc1ccc2nc(C)c3c(c2c1)SCC3 | 24.5 | 79.5 |
| CC(C)CCNC(=O)CSc1nc(O)c2ccccc2n1 | 40.4 | 27.8 |
| COc1cc(/C=N/NC(=O)c2ccncc2)ccc1Oc1ccc([N+](=O)[O-])cn1 | 71.3 | 194 |
| O=C(Nc1cccc(Cl)c1)NC1CC2CCC1C2 (stereo unspecified) | 31.1 | 232 |
| COc1ccc(/C=N/NC(=O)c2ccncc2)cc1Cn1nc([N+](=O)[O-])c(Br)c1C | < 0 | 273 |
| Cc1ccccc1OCCC(=O)NNC(=O)c1ccccc1F | 17.3 | 106 |
| O=C(CCC1CCCC1)NCc1cccs1 | 42.7 | 198 |
| CSc1ccc(NC(N)=S)cc1 | 35.6 | 248 |
| C=C[C@]1(C)C[C@@H](OC(=O)CSCCN(CC)CC)[C@]2(C)C(C)CC[C@]3(CCC(=O)[C@H]32)[C@@H](C)[C@@H]1O (stereo partly specified) | < 0 | 231 |
| O=C(NN=C1CCCCCCCCCCC1)c1ccncc1 | 73.9 | 262 |
| O=c1c2ccccc2oc2nc3n(c(=O)c12)CCCS3 | 47.5 | 223 |
| N#Cc1ccc(C(=O)NCC2CCCCC2)cc1 | 44.2 | 107 |
| COc1cc(/C=N/NC(=O)c2ccncc2)ccc1O | 11.1 | 217 |

| Compound | area under cytotoxicity dose-response curve [1] | area under intracellular growth-inhibition dose-response curve [2] |
| --- | --- | --- |
| O=C(Nc1ccc2c(c1)OCCO2)NC12CC3CC(CC(C3)C1)C2 | 22.8 | 136 |
| O=C(CSc1nc(-c2ccccc2)ns1)N1CCOCC1 | 56.3 | 163 |
| Cc1nc(SCc2cccc(F)c2)c2oc3ccccc3c2n1 | < 0 | 186 |
| C/C(=N\NC(=O)c1ccncc1)c1cccnc1 | 90.7 | 129 |
| CNc1nc(SC)nc2ccsc12 | 11.7 | 221 |
| CN(C)[C@@H]1C(=O)C(C(N)=O)=C(O)[C@@]2(O)C(O)=C3C(=O)c4c(O)cccc4[C@@](C)(O)C3[C@H](O)C12.Cl (stereo partly specified) | 62.5 | 271 |
| CCCCOc1ccc(C(=O)C2=C(O)C(=O)N(CCCOC)C2c2ccncc2)cc1 (stereo unspecified) | 19.4 | 106 |
| CC(=O)Nc1sc(N/N=C\c2ccc(O)cc2)nc1-c1cccs1 | 155 | 194 |
| CCC(CO)N1C(C)=CC(=Cc2sc3ccccc3[n+]2Cc2ccccc2)C=C1C.[Br-] (stereo unspecified) | 54.8 | 176 |
| COc1ccccc1C=NNC(=O)c1ccncc1 | 9 | 266 |
| COc1ccc(OC)c2sc(N3CCN(C(=O)c4ccc([N+](=O)[O-])s4)CC3)nc12 | 14.2 | 10.8 |
| S=C(Nc1ccccc1)Nc1ccc(OCc2ccccc2)cc1 | < 0 | 272 |
| COC(=O)c1ccc(COc2ccc(/C=N/NC(N)=S)cc2)o1 | 50.5 | 277 |
| COc1ccc(C(=O)COC(=O)CNC(=O)c2ccc(C)s2)c(OC)c1 | < 0 | 29.9 |
| COc1cc(/C=N/NC(=O)c2ccncc2)ccc1OC(=O)c1cccc(F)c1 | 88.7 | 111 |
| COc1ccc(Cc2nnc(-c3ccccc3)o2)cc1 | 28.8 | 243 |
| O=C(NC1CCCCCC1)c1ccc(Br)o1 | 27.7 | 231 |
| O=C(NCc1ccc(Cl)cc1)c1ccc(Br)o1 | 52.2 | 204 |
| CCOC(=O)C1=C(COC(=O)c2ccc(OC)c(S(=O)(=O)N3CCOCC3)c2)NC(=O)NC1C (stereo unspecified) | 65.5 | 56.9 |
| Cc1ccccc1-n1c(SCC(=O)N/N=C/c2c(C)nn(-c3ccccc3)c2C)nc2ccccc2c1=O | 13.8 | 203 |
| O=[N+]([O-])c1ccc(/C=N/Nc2nc(N3CCCCC3)nc(N3CCCCC3)n2)o1 | < 0 | 226 |
| CCN1/C(=C/c2ccc3cc(C)ccc3[n+]2C)Sc2ccc3sccc3c21.[I-] | 180 | 149 |
| Cc1cc(NS(=O)(=O)c2ccc(NC(=S)Nc3ccc(Cl)cc3C)cc2)no1 | 7.59 | 102 |
| CNC(=S)N/C=N/OCc1c(Cl)cccc1Cl | 86.9 | 83.8 |
